The values that follow are results of earlier work, collected in patent publication US20050187170A1, “Enhancing the efficiency of RNA polymerase inhibitors by using inosine monophosphate dehydrogenase inhibitors” (BIOCRYST PHARMACEUTICALS, INC., priority 2003, published 2005).

One series addresses human IMPDH type I (Homo sapiens, UniProt P20839). The settings on record: read-out: Ki, IMPDH type I; type I expressed in normal cells; Carr, et al.
The next series deals with HIV. To be noted: human peripheral blood CD4+ lymphocytes and macrophages, established human cell lines.

Sequence of human IMPDH type I (P20839 whole entry): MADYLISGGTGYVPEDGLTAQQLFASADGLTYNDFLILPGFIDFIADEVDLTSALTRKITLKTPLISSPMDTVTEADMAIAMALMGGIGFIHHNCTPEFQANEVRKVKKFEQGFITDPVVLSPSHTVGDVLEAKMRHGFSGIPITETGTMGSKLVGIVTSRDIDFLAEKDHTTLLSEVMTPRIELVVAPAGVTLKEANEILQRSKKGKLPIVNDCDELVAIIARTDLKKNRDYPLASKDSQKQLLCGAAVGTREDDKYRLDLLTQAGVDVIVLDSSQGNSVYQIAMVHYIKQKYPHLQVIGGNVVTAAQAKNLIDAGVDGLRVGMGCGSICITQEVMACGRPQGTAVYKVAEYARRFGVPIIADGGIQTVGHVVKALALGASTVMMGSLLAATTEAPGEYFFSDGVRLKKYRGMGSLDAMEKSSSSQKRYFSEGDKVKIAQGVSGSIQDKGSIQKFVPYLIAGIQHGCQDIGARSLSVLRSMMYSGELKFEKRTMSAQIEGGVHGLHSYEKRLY

What is called Ki is the equilibrium dissociation constant of an inhibitor or competing ligand from its target. In the case of `COc1c(C)c2c(c(O)c1C/C=C(\C)CCC(=O)O)C(=O)OC2` [MPA, Mycophenolic acid], on human IMPDH type I, the Ki is 33 to 37 nM. Moreover, the “anti-HIV activity in vitro” value with HIV is on record as “strong anti-HIV activity”.
